Test results taken from patent EP0416746A2 (priority 1989, dated 1991).
Like-named read-outs stand apart in the source and are kept apart here.

Legend:
Pellicularia sasakii = assay type: in vivo
Venturia inaequalis = settings: in vivo
Phytophthora infestans = assay type: in vivo; settings: active = greater than 50% control of the disease at 125 ppm (w/v) or less; spray or stem base drench; late tomato blight
Plasmopara viticola = assay type: in vivo
Pyricularia oryzae = assay type: in vivo; settings: active = greater than 50% control of the disease at 125 ppm (w/v) or less; spray or stem base drench; rice blast
Erysiphe graminis = assay type: in vivo; settings: active = greater than 50% control of the disease at 125 ppm (w/v) or less; spray or stem base drench; barley powdery mildew
Botrytis cinerea = assay type: in vivo; settings: active = greater than 50% control of the disease at 125 ppm (w/v) or less; spray or stem base drench; grey mould of tomato

Row | SMILES | PS (Pellicularia sasakii; in vivo) | VI (Venturia inaequalis) | PI (Phytophthora infestans) | PV (Plasmopara viticola; in vivo) | PS (Pellicularia sasakii; active = greater than 50% control of the disease at 125 ppm (w/v) or less, spray or stem base drench, rice sheath blight) | PO (Pyricularia oryzae) | PV (Plasmopara viticola; active = greater than 50% control of the disease at 125 ppm (w/v) or less, spray or stem base drench, vine downy mildew) | EG (Erysiphe graminis) | BC (Botrytis cinerea)
1 | CO/C=C(/C(=O)OC)c1ccccc1CSC(C)=O [Compound 3, methyl (E)-2-[2-(acetylthiomethyl)phenyl]-3-methoxy-2-propenoate] | + (key: + = active) | + (key: + = active) |  |  |  |  |  |  | 
2 | CO/C=C(/C(=O)OC)c1ccccc1CSC(=O)c1ccccc1 [Compound 1, methyl (E)-2-[2-(benzoylthiomethyl)phenyl]-3-methoxy-2-propenoate] |  | + (key: + = active) | + (+ = active) | + (key: + = active) |  |  |  |  | 
3 | CO/N=C(/C(=O)OC)c1ccccc1CSC(=O)c1ccccc1 [Compound 12, methyl (E)-2-[2-(benzoylthiomethyl)phenyl]-(methoxyimino)acetate] |  | + (key: + = active) |  | + (key: + = active) |  |  |  |  | 
4 | CO/C=C(/C(=O)OC)c1ccccc1CSC(=O)C(C)(C)C [Compound 2] |  |  | + (+ = active) |  | + (+ = active) | + (+ = active) | + (+ = active) | + (+ = active) | + (+ = active)
